Experimental data reported in patent publication US12667584B2, “Adenosine analog and its use in regulating the circadian clock” (NATIONAL INSTITUTE OF BIOLOGICAL SCIENCES, BEIJING, priority 2017, dated 2026).

Tests used:
Ruvbl2 = Ruvbl2 (Homo sapiens, UniProt Q9Y230); experiment: Biotinylated compounds pull-down in U2OS cell lysate, RUVBL2; format: binding; parameters: Every 10^8 unsynchronized U2OS cells were collected, homogenized into 2 ml lysis buffer; endogenous in cells; host or cells: U2OS; settings: competed by biotin free compound
Experimental: (§1) Biotinylated Compounds Pull-down, SPR analysis and Immunoprecipitation: The interaction between biotinylated compounds and their target proteins were proceeded as follow. Every 10^8 unsynchronized U2OS cells were collected, homogenized into 2 ml lysis buffer (25 mM MOPS pH7.2, 15 mM EGTA, 15 mM MgCl2, 1 mM DTT, 60 mM β-glycerophosphate, 1 mM Na3VO4, 1 mM NaF, 1 mM phenyl phosphate, Complete Protease Inhibitor Cocktail), and sonicated 6 times for 30 s at 4° C. with a Diagenode bioruptor. After sonication, NP-40 (final 0.5%) was added, incubated 15 min on ice, centrifuged at full speed for 20 min at 4° C. The resultant supernatant was firstly incubated with Pentostatin (final concentration at 5 μg/ml) for 2 h at 4° C. with rotation, and then split into 4 groups. 200 pmol cordycepin, 200 pmol DRB, and DMSO (2 groups, final 0.1%) was added respectively and further incubated for 1 h. […] The eluted protein was analyzed with western blot. The binding affinity of cordycepin against the RUVBL2 protein was measured via SPR technology using a Biacore T200 instrument (GE Healthcare) at room temperature. […] The binding kinetics and binding affinity of cordycepin against the RUVBL2 protein were determined with BIA evaluation software (GE healthcare). […] Immunoprecipitated protein complex was then washed 3 times with IP lysis buffer, boiled and analyzed with western blot. […]

CDK9 = target: T1, CDK9 (Homo sapiens, UniProt P50750); experiment: Biotinylated compounds pull-down in U2OS cell lysate, CDK9; format: binding
T1 construct: Every 10^8 unsynchronized U2OS cells were collected, homogenized into 2 ml lysis buffer; endogenous in cells; host or cells: U2OS
Experimental: as §1

T1 sequence (P50750 whole entry): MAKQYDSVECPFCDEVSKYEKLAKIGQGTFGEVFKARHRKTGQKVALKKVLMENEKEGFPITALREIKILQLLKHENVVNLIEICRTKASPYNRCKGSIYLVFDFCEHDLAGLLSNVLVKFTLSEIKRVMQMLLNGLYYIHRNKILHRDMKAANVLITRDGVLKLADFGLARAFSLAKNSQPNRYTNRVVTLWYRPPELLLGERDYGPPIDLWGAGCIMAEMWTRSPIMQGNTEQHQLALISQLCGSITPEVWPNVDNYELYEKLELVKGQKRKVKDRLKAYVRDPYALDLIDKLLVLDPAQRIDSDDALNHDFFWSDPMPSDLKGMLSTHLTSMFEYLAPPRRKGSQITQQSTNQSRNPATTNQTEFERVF
T1 sequence (O60563 whole entry partner): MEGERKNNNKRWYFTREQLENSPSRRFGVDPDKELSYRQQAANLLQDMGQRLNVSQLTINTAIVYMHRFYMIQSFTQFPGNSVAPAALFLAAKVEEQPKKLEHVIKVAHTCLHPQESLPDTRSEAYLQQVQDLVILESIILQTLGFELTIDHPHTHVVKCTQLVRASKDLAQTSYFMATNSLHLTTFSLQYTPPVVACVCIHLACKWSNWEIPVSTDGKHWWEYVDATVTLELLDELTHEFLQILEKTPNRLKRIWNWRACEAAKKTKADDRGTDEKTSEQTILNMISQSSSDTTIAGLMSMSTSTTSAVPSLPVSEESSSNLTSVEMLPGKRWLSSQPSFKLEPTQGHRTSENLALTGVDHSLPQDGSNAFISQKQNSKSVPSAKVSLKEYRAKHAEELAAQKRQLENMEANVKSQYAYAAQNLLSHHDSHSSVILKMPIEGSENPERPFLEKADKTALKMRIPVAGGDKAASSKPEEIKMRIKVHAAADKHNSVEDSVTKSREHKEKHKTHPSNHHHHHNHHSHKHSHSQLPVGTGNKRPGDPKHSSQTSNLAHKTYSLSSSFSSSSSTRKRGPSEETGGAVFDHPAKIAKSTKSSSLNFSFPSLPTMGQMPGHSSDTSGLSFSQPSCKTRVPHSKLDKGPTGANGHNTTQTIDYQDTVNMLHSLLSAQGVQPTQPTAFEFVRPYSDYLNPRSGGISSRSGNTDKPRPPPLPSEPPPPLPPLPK
Sequence of Ruvbl2 (Q9Y230 whole entry): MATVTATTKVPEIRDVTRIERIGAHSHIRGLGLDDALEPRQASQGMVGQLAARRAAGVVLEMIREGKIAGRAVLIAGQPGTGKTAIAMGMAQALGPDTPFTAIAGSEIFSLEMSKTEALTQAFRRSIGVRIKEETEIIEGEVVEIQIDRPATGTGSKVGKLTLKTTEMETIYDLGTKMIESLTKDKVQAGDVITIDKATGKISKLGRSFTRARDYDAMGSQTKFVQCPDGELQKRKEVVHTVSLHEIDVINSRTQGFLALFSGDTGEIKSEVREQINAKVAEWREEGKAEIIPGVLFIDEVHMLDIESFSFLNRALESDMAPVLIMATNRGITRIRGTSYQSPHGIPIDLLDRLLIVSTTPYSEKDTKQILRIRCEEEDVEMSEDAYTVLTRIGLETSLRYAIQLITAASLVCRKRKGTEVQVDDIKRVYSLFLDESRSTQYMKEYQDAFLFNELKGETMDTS

Q: Which results are given for `O=C1N[C@H]2[C@H](CS[C@H]2CCCCC(=O)OC[C@H]2O[C@@H](n3cnc4cc(Cl)c(Cl)cc43)[C@H](O)[C@@H]2O)N1` [biotin-DRB, 5,6-dichloro-1-(5′-O-biotinyl-β-D-ribofuranosyl)-benzimidazole]?
A: pull-down of Ruvbl2 (Ruvbl2): can pull-down; pull-down of CDK9 (CDK9): successfully isolated
